One data set deals with MCF7 (human breast adenocarcinoma) cells. Briefly: MTT cytotoxicity assay, MCF7. The format is cell-based. The conditions noted are these: Homo sapiens, MCF7, mean ± SD of triplicate. The procedure: (§1) The cytotoxicity of the synthesised quinazolin-4(3H)-ones was evaluated by MTT assay, as previously described. Two cancer cell lines, MCF7 (human breast adenocarcinoma) and A2780 (human ovary adenocarcinoma), were used in this study, which were obtained from the ATCC (Rockville, MD, USA). […] Additionally, compounds were prepared at the same medium to obtain serial dilutions (50, 25, […] and 0.1 µM). […] The media were aspirated, and the formazan crystals were solubilised by adding 150 µL DMSO. Absorbance was read on a multi-plate reader (BioRad) at […]. […] The data were obtained from triplicates and analysed using statistical software.
A general note: Tetrazolium assays rely on reduction of a dye to a coloured formazan, in cell work by metabolically active cells.
T4 sequence (P00533 25-1210): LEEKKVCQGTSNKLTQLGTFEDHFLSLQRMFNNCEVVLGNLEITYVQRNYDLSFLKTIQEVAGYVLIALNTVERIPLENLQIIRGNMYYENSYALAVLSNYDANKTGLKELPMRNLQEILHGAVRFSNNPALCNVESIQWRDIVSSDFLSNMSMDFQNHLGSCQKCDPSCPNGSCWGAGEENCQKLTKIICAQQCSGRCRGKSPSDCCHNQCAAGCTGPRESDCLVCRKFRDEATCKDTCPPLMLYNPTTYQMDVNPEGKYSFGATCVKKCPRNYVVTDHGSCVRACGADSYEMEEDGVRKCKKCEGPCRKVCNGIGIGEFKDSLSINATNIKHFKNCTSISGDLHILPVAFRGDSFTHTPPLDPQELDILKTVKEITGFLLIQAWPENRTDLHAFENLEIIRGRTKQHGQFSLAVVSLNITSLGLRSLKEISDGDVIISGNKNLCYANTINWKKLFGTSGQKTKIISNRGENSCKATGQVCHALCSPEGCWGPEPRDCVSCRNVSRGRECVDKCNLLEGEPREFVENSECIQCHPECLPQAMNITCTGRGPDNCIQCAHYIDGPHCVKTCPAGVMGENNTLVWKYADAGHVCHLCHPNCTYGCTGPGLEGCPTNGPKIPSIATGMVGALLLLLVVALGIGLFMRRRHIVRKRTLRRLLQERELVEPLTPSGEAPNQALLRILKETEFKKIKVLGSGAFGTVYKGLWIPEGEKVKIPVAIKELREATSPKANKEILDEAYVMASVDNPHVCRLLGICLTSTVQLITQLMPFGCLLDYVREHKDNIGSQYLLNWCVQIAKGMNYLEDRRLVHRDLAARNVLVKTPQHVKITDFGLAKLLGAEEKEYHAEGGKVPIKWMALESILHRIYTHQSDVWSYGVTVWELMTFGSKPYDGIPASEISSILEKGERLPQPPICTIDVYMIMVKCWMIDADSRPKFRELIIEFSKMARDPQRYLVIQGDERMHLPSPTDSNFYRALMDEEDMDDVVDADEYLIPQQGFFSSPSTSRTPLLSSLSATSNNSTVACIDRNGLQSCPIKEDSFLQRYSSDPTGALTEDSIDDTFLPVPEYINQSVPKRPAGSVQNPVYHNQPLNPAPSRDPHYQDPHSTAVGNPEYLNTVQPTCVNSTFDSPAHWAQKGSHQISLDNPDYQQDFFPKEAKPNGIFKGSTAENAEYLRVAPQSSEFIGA
By IC50 is commonly meant the concentration at which inhibition is half-maximal. Take `NNC(=O)CSc1nc2c(F)cc(F)cc2c(=O)n1Cc1ccccc1` [3h, 2-((3-Benzyl-6,8-difluoro-4-oxo-3,4-dihydroquinazolin-2-yl)thio)acetohydrazide]: the IC50 is 840 ± 50 nM.

The target of the next data set is T1, CDK2/CyclinA2 (Homo sapiens, UniProt P24941).
T1 construct: purchased #79599
Briefly: CDK2 Assay Kit, Kinase-Glo MAX luminescence. Type of data set: biochemical. Conditions: mean ± SD of triplicate.
`NNC(=O)CSc1nc2c(F)cc(F)cc2c(=O)n1Cc1ccccc1` [3h, 2-((3-Benzyl-6,8-difluoro-4-oxo-3,4-dihydroquinazolin-2-yl)thio)acetohydrazide] showed an IC50 of 257 ± 16 nM.

In the next data set the target is T2, VEGFR2 (Homo sapiens, UniProt P35968).
T2 construct: purchased #40325
T2 sequence (P35968 20-1356): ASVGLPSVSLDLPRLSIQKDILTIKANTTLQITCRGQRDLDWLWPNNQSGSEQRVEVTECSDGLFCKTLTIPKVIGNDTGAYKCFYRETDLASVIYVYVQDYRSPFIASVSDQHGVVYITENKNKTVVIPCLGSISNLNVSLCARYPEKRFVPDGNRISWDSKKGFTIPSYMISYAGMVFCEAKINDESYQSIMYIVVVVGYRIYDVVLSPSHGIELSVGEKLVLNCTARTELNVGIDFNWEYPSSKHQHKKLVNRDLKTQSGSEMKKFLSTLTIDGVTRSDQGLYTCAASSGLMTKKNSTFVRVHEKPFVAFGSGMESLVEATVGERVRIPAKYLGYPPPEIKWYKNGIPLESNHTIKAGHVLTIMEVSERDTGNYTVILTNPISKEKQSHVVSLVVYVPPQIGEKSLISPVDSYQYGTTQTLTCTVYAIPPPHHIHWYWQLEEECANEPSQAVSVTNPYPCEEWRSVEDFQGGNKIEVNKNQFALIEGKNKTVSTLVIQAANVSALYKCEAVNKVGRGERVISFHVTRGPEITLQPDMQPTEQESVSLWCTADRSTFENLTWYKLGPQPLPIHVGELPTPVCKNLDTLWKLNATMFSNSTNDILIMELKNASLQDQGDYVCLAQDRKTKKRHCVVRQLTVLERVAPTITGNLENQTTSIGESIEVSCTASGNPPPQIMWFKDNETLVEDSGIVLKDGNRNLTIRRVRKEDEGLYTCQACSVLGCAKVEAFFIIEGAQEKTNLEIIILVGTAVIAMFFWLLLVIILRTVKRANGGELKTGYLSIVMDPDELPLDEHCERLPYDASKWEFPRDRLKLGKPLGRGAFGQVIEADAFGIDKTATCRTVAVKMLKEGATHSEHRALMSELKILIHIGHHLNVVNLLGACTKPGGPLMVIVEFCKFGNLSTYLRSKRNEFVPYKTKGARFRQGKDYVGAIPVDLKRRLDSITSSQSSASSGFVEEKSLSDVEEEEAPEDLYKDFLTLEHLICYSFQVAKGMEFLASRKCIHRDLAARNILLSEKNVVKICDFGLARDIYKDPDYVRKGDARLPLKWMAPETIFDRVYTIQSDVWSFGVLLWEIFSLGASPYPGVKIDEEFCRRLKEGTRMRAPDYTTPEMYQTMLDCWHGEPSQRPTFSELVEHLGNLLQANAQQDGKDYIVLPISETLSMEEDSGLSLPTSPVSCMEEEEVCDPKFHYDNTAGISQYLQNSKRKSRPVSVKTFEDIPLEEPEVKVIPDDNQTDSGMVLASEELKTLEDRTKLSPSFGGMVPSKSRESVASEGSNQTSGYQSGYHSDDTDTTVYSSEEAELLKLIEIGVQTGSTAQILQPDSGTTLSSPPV
Put plainly: VEGFR2 kinase assay kit, Kinase-Glo MAX luminescence. The format is biochemical. Conditions: 0.01 µM; one experimental data; read-out: % Inhibition VEGFR-2. The method, then: (§2) The HER2/EGFR/VEGFR2 assay kit is designed to measure HER2/EGFR/VEGFR-2 inhibitory activity for screening and profiling applications, using Kinase-Glo® MAX as a detection reagent. The HER2/EGFR/VEGFR2 assay kit comes in a convenient 96-well format, with enough purified recombinant HER2/EGFR/VEGFR2 enzyme, HER2/EGFR/VEGFR2 substrate, ATP and kinase buffer 1 for 100 enzyme reactions. […] […] The quinazolin-4(3H)-ones were diluted in 10% DMSO and 5 μl of the dilution was added to a 50 μl reaction so that the final concentration of DMSO was 1% in all of the reactions. All of the enzymatic reactions were conducted at 30 °C for 40 min. The 50 μl reaction mixture contained 40 mM Tris, pH 7.4, 10 mM MgCl2, 0.1 mg/mL BSA, 1 mM DTT, 10 mM ATP, kinase substrate and the enzyme HER2 / EGFR / VEGFR2. After the enzymatic reaction, 50 μl of Kinase-Glo® MAX luminescence kinase assay solution was added to each reaction and the plates were incubated for 5 min at room temperature. Luminescence signal was measured using a Bio Tek Synergy 2 microplate reader (For detail enzyme assay protocol and the results, please see supplementary data).
The term inhibition denotes the drop in the measured response relative to a control, in per cent. Take `NNC(=O)CSc1nc2c(F)cc(F)cc2c(=O)n1Cc1ccccc1` [3h, 2-((3-Benzyl-6,8-difluoro-4-oxo-3,4-dihydroquinazolin-2-yl)thio)acetohydrazide]: the inhibition at 0.01 µM turned out to be 3.17%.

The data set is the same for the next values; noted with them: 0.1 µM; one experimental data; read-out: % Inhibition VEGFR-2.
Consider `NNC(=O)CSc1nc2c(F)cc(F)cc2c(=O)n1Cc1ccccc1` [3h, 2-((3-Benzyl-6,8-difluoro-4-oxo-3,4-dihydroquinazolin-2-yl)thio)acetohydrazide], for which the inhibition at 0.1 µM stood at 19.5%.

The data set is the same for the next values; noted with them: 1 µM; one experimental data; read-out: % Inhibition VEGFR-2.
Consider `NNC(=O)CSc1nc2c(F)cc(F)cc2c(=O)n1Cc1ccccc1` [3h, 2-((3-Benzyl-6,8-difluoro-4-oxo-3,4-dihydroquinazolin-2-yl)thio)acetohydrazide], for which the inhibition at 1 µM was 33.4%.

The data set is the same for the next values; noted with them: 10 µM; one experimental data; read-out: % Inhibition VEGFR-2.
`NNC(=O)CSc1nc2c(F)cc(F)cc2c(=O)n1Cc1ccccc1` [3h, 2-((3-Benzyl-6,8-difluoro-4-oxo-3,4-dihydroquinazolin-2-yl)thio)acetohydrazide]: the inhibition at 10 µM came out at 33.1%.

The same data set, now with this note: mean ± SD of triplicate.
Consider `NNC(=O)CSc1nc2c(F)cc(F)cc2c(=O)n1Cc1ccccc1` [3h, 2-((3-Benzyl-6,8-difluoro-4-oxo-3,4-dihydroquinazolin-2-yl)thio)acetohydrazide], for which the IC50 was determined as 1370 ± 26 nM.

In a further data set the target is T3, HER2 (Homo sapiens, UniProt P04626).
T3 construct: purchased #40721
T3 sequence (P04626 23-1255): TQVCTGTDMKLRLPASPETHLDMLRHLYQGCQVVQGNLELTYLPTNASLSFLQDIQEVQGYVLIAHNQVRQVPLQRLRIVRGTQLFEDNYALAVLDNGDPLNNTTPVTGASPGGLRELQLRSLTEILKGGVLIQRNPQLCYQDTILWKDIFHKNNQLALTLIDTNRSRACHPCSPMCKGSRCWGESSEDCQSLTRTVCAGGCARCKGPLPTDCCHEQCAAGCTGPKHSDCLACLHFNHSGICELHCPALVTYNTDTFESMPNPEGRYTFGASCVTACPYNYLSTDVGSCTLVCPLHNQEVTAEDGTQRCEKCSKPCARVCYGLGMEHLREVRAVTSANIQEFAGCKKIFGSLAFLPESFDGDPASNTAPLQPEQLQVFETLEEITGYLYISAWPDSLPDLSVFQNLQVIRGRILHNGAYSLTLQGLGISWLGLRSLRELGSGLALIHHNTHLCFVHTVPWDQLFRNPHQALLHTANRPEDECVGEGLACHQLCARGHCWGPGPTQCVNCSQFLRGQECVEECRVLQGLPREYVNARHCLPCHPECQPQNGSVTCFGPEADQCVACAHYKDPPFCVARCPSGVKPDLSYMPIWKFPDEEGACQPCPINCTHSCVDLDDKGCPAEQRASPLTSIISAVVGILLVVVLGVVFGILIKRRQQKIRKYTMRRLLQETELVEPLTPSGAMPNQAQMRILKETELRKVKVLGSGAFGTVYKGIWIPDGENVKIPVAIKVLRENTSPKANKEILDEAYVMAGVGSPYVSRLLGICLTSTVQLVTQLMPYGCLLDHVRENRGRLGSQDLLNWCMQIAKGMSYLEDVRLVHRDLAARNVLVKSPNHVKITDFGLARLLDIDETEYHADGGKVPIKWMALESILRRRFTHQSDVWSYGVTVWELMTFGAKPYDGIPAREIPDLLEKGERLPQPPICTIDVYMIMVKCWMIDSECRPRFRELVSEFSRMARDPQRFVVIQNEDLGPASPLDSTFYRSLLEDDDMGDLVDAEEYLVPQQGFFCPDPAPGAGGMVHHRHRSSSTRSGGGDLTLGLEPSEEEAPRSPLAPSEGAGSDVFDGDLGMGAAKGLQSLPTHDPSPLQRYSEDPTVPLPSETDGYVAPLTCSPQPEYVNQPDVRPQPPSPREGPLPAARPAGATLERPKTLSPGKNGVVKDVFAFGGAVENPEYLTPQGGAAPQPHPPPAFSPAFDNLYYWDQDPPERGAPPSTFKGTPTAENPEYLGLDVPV
Briefly: HER2 kinase assay kit, Kinase-Glo MAX luminescence. Conditions: 0.01 µM; one experimental data. Type of data set: biochemical. The procedure:
as §2
(In Kinase-Glo more light means more ATP remaining.)
Turning to `NNC(=O)CSc1nc2c(F)cc(F)cc2c(=O)n1Cc1ccccc1` [3h, 2-((3-Benzyl-6,8-difluoro-4-oxo-3,4-dihydroquinazolin-2-yl)thio)acetohydrazide], the inhibition at 0.01 µM is 2.73%.

Staying with this data set, now noted: 0.1 µM; one experimental data.
As to `NNC(=O)CSc1nc2c(F)cc(F)cc2c(=O)n1Cc1ccccc1` [3h, 2-((3-Benzyl-6,8-difluoro-4-oxo-3,4-dihydroquinazolin-2-yl)thio)acetohydrazide], the inhibition at 0.1 µM came to 44.4%.

Staying with this data set, now noted: 1 µM; one experimental data.
As for `NNC(=O)CSc1nc2c(F)cc(F)cc2c(=O)n1Cc1ccccc1` [3h, 2-((3-Benzyl-6,8-difluoro-4-oxo-3,4-dihydroquinazolin-2-yl)thio)acetohydrazide], the inhibition at 1 µM was found to be 77.3%.

The data set is the same for the next values; noted with them: 10 µM; one experimental data.
In the case of `NNC(=O)CSc1nc2c(F)cc(F)cc2c(=O)n1Cc1ccccc1` [3h, 2-((3-Benzyl-6,8-difluoro-4-oxo-3,4-dihydroquinazolin-2-yl)thio)acetohydrazide], the inhibition at 10 µM is 89.8%.

The same data set, now with this note: mean ± SD of triplicate.
As to `NNC(=O)CSc1nc2c(F)cc(F)cc2c(=O)n1Cc1ccccc1` [3h, 2-((3-Benzyl-6,8-difluoro-4-oxo-3,4-dihydroquinazolin-2-yl)thio)acetohydrazide], the IC50 turned out to be 248 ± 23 nM.

Another data set deals with T1, CDK2/CyclinA2. Put plainly: CDK2 Assay Kit, Kinase-Glo MAX luminescence. Type of data set: biochemical. Conditions: 0.01 µM; one experimental data. The procedure: The CDK2 Assay Kit is designed to measure CDK2/CyclinA2 activity for screening and profiling applications, using Kinase-Glo® MAX as a detection reagent. The CDK2 Assay Kit comes in a convenient 96-well format, with enough purified recombinant CDK2/CyclinA2 enzyme, CDK substrate peptide, ATP and kinase assay buffer for 100 enzyme reactions. […] […] The compounds were diluted in 10% DMSO and 5 μl of the dilution was added to a 50 μl reaction so that the final concentration of DMSO was 1% in all of the reactions. All of the enzymatic reactions were conducted at 30 °C for 40 min. The 50 μl reaction mixture contained 40 mM Tris, pH 7.4, 10 mM MgCl2, 0.1 mg/mL BSA, 1 mM DTT, 10 mM ATP, Kinase substrate and the enzyme (CDK2/CyclinA2). After the enzymatic reaction, 50 μl of Kinase-Glo® MAX Luminescence kinase assay solution was added to each reaction and the plates were incubated for 5 min at room temperature. Luminescence signal was measured using a Bio Tek Synergy 2 microplate reader.
Figure S1. Calculation of the IC20 Values of Protein Kinase Enzyme CDK2 for 2f
* All the kinase IC20 (µM) were calculated according to the above equations.
(1 picture or pasted object on this page, not shown here)
As for `NNC(=O)CSc1nc2c(F)cc(F)cc2c(=O)n1Cc1ccccc1` [3h, 2-((3-Benzyl-6,8-difluoro-4-oxo-3,4-dihydroquinazolin-2-yl)thio)acetohydrazide], the inhibition at 0.01 µM came to 3.74%.

Still in this data set, the particulars now being: 0.1 µM; one experimental data.
Regarding `NNC(=O)CSc1nc2c(F)cc(F)cc2c(=O)n1Cc1ccccc1` [3h, 2-((3-Benzyl-6,8-difluoro-4-oxo-3,4-dihydroquinazolin-2-yl)thio)acetohydrazide], the inhibition at 0.1 µM is 19.9%.

The data set is the same for the next values; noted with them: 1 µM; one experimental data.
On to `NNC(=O)CSc1nc2c(F)cc(F)cc2c(=O)n1Cc1ccccc1` [3h, 2-((3-Benzyl-6,8-difluoro-4-oxo-3,4-dihydroquinazolin-2-yl)thio)acetohydrazide], for which the inhibition at 1 µM was found to be 70.2%.

The same data set, now with this note: 10 µM; one experimental data.
With `NNC(=O)CSc1nc2c(F)cc(F)cc2c(=O)n1Cc1ccccc1` [3h, 2-((3-Benzyl-6,8-difluoro-4-oxo-3,4-dihydroquinazolin-2-yl)thio)acetohydrazide], the inhibition at 10 µM worked out at 82.1%.

Tested on in the next data set: not given
Assay: not given
Conditions: not given
One may read the melting point as the temperature of the solid-liquid transition. The molecule `NNC(=O)CSc1nc2c(F)cc(F)cc2c(=O)n1Cc1ccccc1` [3h, 2-((3-Benzyl-6,8-difluoro-4-oxo-3,4-dihydroquinazolin-2-yl)thio)acetohydrazide] yielded a melting point of 185 to 186 °C.

The test system of a further data set is A2780 (human ovary adenocarcinoma) cells. Put plainly: MTT cytotoxicity assay, A2780. Conditions: Homo sapiens, A2780, mean ± SD of triplicate. The format is cell-based. The procedure: as §1
`NNC(=O)CSc1nc2c(F)cc(F)cc2c(=O)n1Cc1ccccc1` [3h, 2-((3-Benzyl-6,8-difluoro-4-oxo-3,4-dihydroquinazolin-2-yl)thio)acetohydrazide]: half-maximal inhibition (IC50) required 630 ± 160 nM.

The next data set has as its target T4, EGFR (Homo sapiens, UniProt P00533).
T4 construct: purchased #40321
Briefly: EGFR kinase assay kit, Kinase-Glo MAX luminescence. Type of data set: biochemical. The conditions noted are these: 0.01 µM; one experimental data. The method, then: as §2
On to `NNC(=O)CSc1nc2c(F)cc(F)cc2c(=O)n1Cc1ccccc1` [3h, 2-((3-Benzyl-6,8-difluoro-4-oxo-3,4-dihydroquinazolin-2-yl)thio)acetohydrazide], for which the inhibition at 0.01 µM was found to be 8.4%.

The data set is the same for the next values; noted with them: 0.1 µM; one experimental data.
For `NNC(=O)CSc1nc2c(F)cc(F)cc2c(=O)n1Cc1ccccc1` [3h, 2-((3-Benzyl-6,8-difluoro-4-oxo-3,4-dihydroquinazolin-2-yl)thio)acetohydrazide], the inhibition at 0.1 µM amounted to 38%.

Staying with this data set, now noted: 1 µM; one experimental data.
As to `NNC(=O)CSc1nc2c(F)cc(F)cc2c(=O)n1Cc1ccccc1` [3h, 2-((3-Benzyl-6,8-difluoro-4-oxo-3,4-dihydroquinazolin-2-yl)thio)acetohydrazide], the inhibition at 1 µM came to 29.2%.

The data set is the same for the next values; noted with them: 10 µM; one experimental data.
On to `NNC(=O)CSc1nc2c(F)cc(F)cc2c(=O)n1Cc1ccccc1` [3h, 2-((3-Benzyl-6,8-difluoro-4-oxo-3,4-dihydroquinazolin-2-yl)thio)acetohydrazide], for which the inhibition at 10 µM turned out to be 87.2%.

Staying with this data set, now noted: mean ± SD of triplicate.
Turning to `NNC(=O)CSc1nc2c(F)cc(F)cc2c(=O)n1Cc1ccccc1` [3h, 2-((3-Benzyl-6,8-difluoro-4-oxo-3,4-dihydroquinazolin-2-yl)thio)acetohydrazide], the IC50 amounted to 128 ± 16 nM.

Values taken from paper PMC8462848, “Quinazolin-4(3H)-one based potential multiple tyrosine kinase inhibitors with excellent cytotoxicity” (Journal of Enzyme Inhibition and Medicinal Chemistry, 2021).
